Experiments:
Assay in all cases: relative viability (nuclei count vs DMSO), 5 days (fraction); higher = more cells survive
ALW-II-49-7 + Olaparib = compound: Cc1ccc(C(=O)Nc2cccc(C(F)(F)F)c2)cc1Nc1cncc(C(N)=O)c1 [ALW-II-49-7] + O=C(c1cc(Cc2n[nH]c(=O)c3ccccc23)ccc1F)N1CCN(C(=O)C2CC2)CC1 [Olaparib] (partner 8 µM)
Method in brief: (§1)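 Nuclei were stained with Hoechst during a one-step fixation (final 0.05% Triton X-100, 1% formaldehyde, 1 ug/ml Hoechst) carried out 5 days after dosing, then counted on 4× images. The cells, lung cancer lines in 1536-well plates, had been dosed by pin tool the day after seeding with one drug alone or a fixed anchor-drug dose plus five library-drug doses (not always all listed) in √10 steps. Relative viability is the nuclei count in treated wells divided by that in vehicle wells, and each value is the median of duplicate plates.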

Dasatinib + Bortezomib = compound: Cc1nc(Nc2ncc(C(=O)Nc3c(C)cccc3Cl)s2)cc(N2CCN(CCO)CC2)n1 [Dasatinib] + CC(C)C[C@H](NC(=O)[C@H](Cc1ccccc1)NC(=O)c1cnccn1)B(O)O [Bortezomib] (partner 0.002 µM)
Method in brief: as §1

ALW-II-49-7 + Tozasertib = compound: Cc1ccc(C(=O)Nc2cccc(C(F)(F)F)c2)cc1Nc1cncc(C(N)=O)c1 [ALW-II-49-7] + Cc1cc(Nc2cc(N3CCN(C)CC3)nc(Sc3ccc(NC(=O)C4CC4)cc3)n2)n[nH]1 [Tozasertib] (partner 0.1 µM)
Method in brief: as §1

Dasatinib + Tozasertib = compound: Cc1nc(Nc2ncc(C(=O)Nc3c(C)cccc3Cl)s2)cc(N2CCN(CCO)CC2)n1 [Dasatinib] + Cc1cc(Nc2cc(N3CCN(C)CC3)nc(Sc3ccc(NC(=O)C4CC4)cc3)n2)n[nH]1 [Tozasertib] (partner 0.1 µM)
Method in brief: as §1

Cell Line | relative viability (ALW-II-49-7 + Olaparib; first compound 0.08 µM) | relative viability (ALW-II-49-7 + Olaparib; first compound 0.253 µM) | relative viability (ALW-II-49-7 + Olaparib; first compound 0.8 µM) | relative viability (ALW-II-49-7 + Olaparib; first compound 2.53 µM) | relative viability (ALW-II-49-7 + Olaparib; first compound 8 µM) | relative viability (Dasatinib + Bortezomib; first compound 0.005 µM) | relative viability (Dasatinib + Bortezomib; first compound 0.01581 µM) | relative viability (Dasatinib + Bortezomib; first compound 0.05 µM) | relative viability (Dasatinib + Bortezomib; first compound 0.1581 µM) | relative viability (Dasatinib + Bortezomib; first compound 0.5 µM) | relative viability (ALW-II-49-7 + Tozasertib; first compound 0.08 µM) | relative viability (ALW-II-49-7 + Tozasertib; first compound 0.253 µM) | relative viability (ALW-II-49-7 + Tozasertib; first compound 0.8 µM) | relative viability (ALW-II-49-7 + Tozasertib; first compound 2.53 µM) | relative viability (ALW-II-49-7 + Tozasertib; first compound 8 µM) | relative viability (Dasatinib + Tozasertib; first compound 0.005 µM) | relative viability (Dasatinib + Tozasertib; first compound 0.01581 µM) | relative viability (Dasatinib + Tozasertib; first compound 0.05 µM) | relative viability (Dasatinib + Tozasertib; first compound 0.1581 µM) | relative viability (Dasatinib + Tozasertib; first compound 0.5 µM)
HCC-15 | 0.757 | 0.689 | 0.719 | 0.577 | 0.648 | 1.01 | 1.01 | 1.11 | 0.965 | 0.743 | 0.325 | 0.367 | 0.272 | 0.328 | 0.333 | 0.424 | 0.403 | 0.338 | 0.251 | 0.235
EMC-BAC-2 | 0.482 | 0.475 | 0.445 | 0.396 | 0.367 | 1.06 | 0.876 | 0.734 | 0.634 | 0.367 | 0.267 | 0.273 | 0.276 | 0.203 | 0.199 | 0.271 | 0.205 | 0.226 | 0.179 | 0.164
NCI-H1734 | 0.57 | 0.628 | 0.596 | 0.46 | 0.558 | 0.754 | 0.508 | 0.79 | 0.425 | 0.561 | 0.263 | 0.278 | 0.255 | 0.24 | 0.232 | 0.26 | 0.285 | 0.235 | 0.165 | 0.181
HOP-62 | 0.162 | 0.378 | 0.595 | – | 0.172 | 0.875 | 0.674 | 0.643 | 0.864 | 0.39 | 0.278 | 0.341 | 0.368 | 0.358 | 0.289 | 0.387 | 0.372 | 0.393 | 0.315 | 0.242
SW 1573 | 0.508 | 0.561 | 0.469 | 0.505 | 0.349 | 0.875 | 0.881 | 0.861 | 0.618 | 0.395 | 0.187 | 0.248 | 0.186 | 0.196 | 0.151 | 0.174 | 0.189 | 0.193 | 0.128 | 0.131
SK-LU-1 | 0.543 | 0.49 | 0.451 | – | 0.362 | 0.954 | 0.777 | 0.726 | 0.33 | 0.406 | 0.323 | 0.391 | 0.295 | 0.289 | 0.242 | 0.272 | 0.194 | 0.156 | 0.101 | 0.0919
NCI-H23 | 0.328 | 0.363 | 0.383 | 0.294 | 0.298 | 0.958 | 0.812 | 0.904 | 0.677 | 0.519 | 0.308 | 0.553 | 0.337 | 0.404 | 0.363 | 0.318 | 0.309 | 0.347 | 0.302 | 0.318
NCI-H1355 | 0.68 | 0.822 | 0.846 | 0.655 | 0.651 | 1.12 | 1.11 | 1.06 | 0.981 | 0.779 | 0.523 | 0.519 | 0.445 | 0.404 | 0.434 | 0.585 | 0.421 | 0.459 | 0.401 | 0.347
COR-L23 | 0.327 | 0.343 | 0.327 | 0.313 | 0.292 | 0.938 | 0.849 | 0.862 | 0.654 | 0.646 | 0.206 | 0.193 | 0.17 | 0.15 | 0.15 | 0.199 | 0.159 | 0.173 | 0.119 | 0.109
NCI-H2023 | 0.458 | 0.543 | 0.649 | 0.451 | 0.424 | 0.788 | 0.818 | 0.791 | 0.705 | 0.669 | 0.257 | 0.464 | 0.276 | 0.259 | 0.189 | 0.304 | 0.316 | 0.293 | 0.245 | 0.219
A-427 | 0.673 | 0.831 | 0.81 | 0.672 | 0.71 | 1 | 0.983 | 0.839 | 0.663 | 0.524 | 0.18 | 0.204 | 0.21 | 0.177 | 0.204 | 0.223 | 0.214 | 0.176 | 0.142 | 0.156
NCI-H596 | 0.523 | 0.616 | 0.774 | 0.599 | 0.757 | 0.928 | 0.815 | 0.826 | 0.525 | 0.515 | 1.02 | 0.939 | 0.92 | 0.782 | 1.14 | 0.766 | 0.671 | 0.87 | 0.507 | 0.393
LU99A | – | 0.292 | 0.249 | 0.254 | 0.288 | 1.11 | 0.973 | 1.03 | 0.812 | 0.573 | 0.273 | 0.29 | 0.252 | 0.269 | 0.249 | 0.233 | – | 0.243 | 0.209 | 0.23
NCI-H2009 | 0.601 | 0.654 | 0.665 | 0.422 | 0.428 | 1.13 | 0.97 | 0.884 | 0.354 | 0.173 | 0.771 | 0.804 | 0.707 | 0.653 | 0.562 | 0.738 | 0.65 | 0.679 | 0.4 | 0.179

— the supplement of paper PMC10307832
